Like-named read-outs stand apart in the source and are kept apart here.
Assays:
P. aeruginosa = assay: Disc diffusion zone of inhibition (Example 2); type: cell-based, Pseudomonas aeruginosa; conditions: for zone of inhibition at 200 µg/disc: 200 μg/disc
Procedure: (§1) The growth medium was prepared by addition of Müller-Hinton agar (38 g) to 1 L distilled water under vigorous stirring and boiled for 10 min until complete dissolution. After cooling to 25° C., the pH value of the medium was 7.3±0.1. The medium was sterilized in an autoclave at 121° C. for 15 min at 20 psi, cooled to 45-50° C. and dispended into sterile Petri dishes on a leveled, horizontal surface to give uniform depth. Stock solutions of the microorganisms were incubated at 37° C. for 24 h and the turbidity of these microbial colony were adjusted visually with sterile saline (0.85% w/v NaCl) to 0.5 McFarland standards (bioMerieux, SA (France) they are made from barium sulfate (BaSO4). Within 15 min after adjusting the turbidity of the suspensions, the Petri dishes were inoculated using sterile cotton buds. The prepared antibiotic assay discs were placed on the surface of the seeded Müller-Hinton agar using flame sterilized forceps.
(§2) Stock solutions of compounds of Formula I, Ia, Ib and Formula II, IIa, pharmaceutically acceptable salts thereof, and metal complexes thereof were made in DMSO and were micropipetted onto the discs for 25 to 200 μg/disc. The discs were dried at ambient temperature for 30-50 min before placement onto the seeded Petri dishes which were then incubated at 37° C. for 24 h. Averaged inhibition zone diameters measurements (mm) have an accuracy of ±0.5 mm; adjacent overlapping ZOI were determined using radii measurements. Antibiotic disc like (sulfamethoxazole 23.75 μg trimethoprim 1.25 μg)/disc, Gentamicin 10 μg/disc and DMSO were used as positive and negative standards (control).
(§3) Antimicrobial test was carried out to evaluate the efficacy of compounds of Formula I, Ia, Ib and Formula II, IIa, pharmaceutically acceptable salts thereof, and metal complexes thereof, as well as control tests with control compounds, against six major pathogenic bacteria namely Bacillus cereus, Pseudomonas aeruginosa, Klebsiella pneumonia, Proteus vulgaris, Staphylococcus aureus and Escherichia coli.

P. vulgaris = assay: Disc diffusion zone of inhibition (Example 2); type: cell-based, Proteus vulgaris; conditions: for zone of inhibition at 200 µg/disc: 200 μg/disc
Procedure: as §1, §2, §3

K. pnemonia = assay: Disc diffusion zone of inhibition (Example 2); type: cell-based, Klebsiella pneumonia; conditions: for zone of inhibition at 200 µg/disc: 200 μg/disc
Procedure: as §1, §2, §3

B. cereus [1] = assay: Disc diffusion zone of inhibition (Example 2); type: cell-based, Bacillus cereus; conditions: for zone of inhibition at 200 µg/disc: 200 μg/disc; for zone of inhibition at 50 µg/disc: 50 μg/disc
Procedure: as §1, §2, §3

E. coli = assay: Disc diffusion zone of inhibition (Example 2); type: cell-based, Escherichia coli; conditions: for zone of inhibition at 200 µg/disc: 200 μg/disc
Procedure: as §1, §2, §3

S. aureus [2] = assay: Disc diffusion zone of inhibition (Example 2); type: cell-based, Staphylococcus aureus; conditions: for zone of inhibition at 50 µg/disc: 50 μg/disc
Procedure: as §1, §2, §3

[3] = DPPH antioxidant activity test; conditions: 50 μg compound in 3 mL methanol; DPPH 150 μL 1 mM; 30 min, 25 °C; absorbance 517 nm
Procedure: In addition to antibacterial properties, antioxidant activity was assessed in the compounds of Formula I and II and metal complexes thereof as antioxidant compounds play an important role in remediating the toxic effects of reactive oxygen species and other free radicals. The main characteristic of an antioxidant compound is its ability to trap free radicals. Highly reactive free radicals and oxygen species are present in biological systems from a wide variety of sources. Free radical damage is known to occur during bacterial and other microbial infections. Free radicals are produced by cells of the immune system during an active infection, and generally as a result of the inflammatory processes.
DPPH (2,2-diphenyl-1-picryl-hydrazyl, 150 μL, 1 mM solution in methanol) was added to 3 mL methanol in a cuvette (0.5 in diameter) and UV-vis absorption recorded at 517 nm for baseline reading. In a cuvette, DPPH (150 μL, 1 mM solution in methanol) was added to a solution containing compound in 3 mL methanol. The reaction was allowed to stir at 25±1° C. for 30 min under exclusion of light. Absorbance was recorded at 517 nm against reference cuvette filled with methanol.

B. cereus [4] = assay: Disc diffusion zone of inhibition (Example 2); type: cell-based; conditions: Bacillus cereus
S. aureus [5] = assay: Disc diffusion zone of inhibition (Example 2); type: cell-based; conditions: Staphylococcus aureus
[6] = system: Pseudomonas aeruginosa (#27853); assay: In vitro disc diffusion assay, ZOI (Example 3); type: cell-based; conditions: P. aeruginosa; control; 10 μg/disc
Procedure: (§4) Sterile assay discs (6 mm diameter) were obtained from VWR Whatman and antibiotic assay discs (6 mm diameter) containing getamicin (10 μg/disc) and the combination drug sulfamethoxazole 23.75 μg/disc and trimethoprim 1.25 μg/disc were obtained from Becton, Dickinson and Company (USA). Dimethyl sulfoxide (DMSO) for microbial experiments was BioReagent™ grade and was purchased from Sigma-Aldrich. The nutrient broth and Müller-Hinton agar was purchased from Becton, Dickinson and Company (USA). Bacillus cereus, Pseudomonas aeruginosa (#27853), Klebsiella pneumonia (#13883), Proteus vulgaris (#13315), Staphylococcus aureus (#25923) and Escherichia coli (#25922) strains were obtained from the American Type Culture Collection (ATCC). All materials in contact with antimicrobial matter was treated for 40 min at 121° C. and 20 psi in a biohazard autoclave bag prior to waste disposing or washing. McFarland turbity standards containing barium sulfate were obtained from bioMérieux.
as §1, with “the” for “these”, “colonies” for “colony”, “standards.” for “standards (bioMerieux, SA (France) they are made from barium sulfate (BaSO4).”
(§5) Stock solutions of compounds and the Cu complexed compounds were made in DMSO and were micropipetted onto the discs for 25 to 200 μg compound/disc. The discs were dried at ambient temperature for 30-50 min before placement onto the seeded Petri dishes which were then incubated at 37° C. for 24 h. Averaged inhibition zone measurements (mm) have an accuracy of ±0.5 mm; adjacent overlapping ZOI were determined using radii measurements.

[7] = system: Proteus vulgaris (#13315); assay: In vitro disc diffusion assay, ZOI (Example 3); type: cell-based; conditions: P. vulgaris; control; 10 μg/disc
Procedure: as §4
as §1, with “the” for “these”, “colonies” for “colony”, “standards.” for “standards (bioMerieux, SA (France) they are made from barium sulfate (BaSO4).”
as §5

[8] = system: Staphylococcus aureus (#25923); assay: In vitro disc diffusion assay, ZOI (Example 3); type: cell-based; conditions: S. aureus; control; 10 μg/disc
Procedure: as §4
as §1, with “the” for “these”, “colonies” for “colony”, “standards.” for “standards (bioMerieux, SA (France) they are made from barium sulfate (BaSO4).”
as §5

[9] = system: Klebsiella pneumonia (#13883); assay: In vitro disc diffusion assay, ZOI (Example 3); type: cell-based; conditions: K. pnemonia; control; 10 μg/disc
Procedure: as §4
as §1, with “the” for “these”, “colonies” for “colony”, “standards.” for “standards (bioMerieux, SA (France) they are made from barium sulfate (BaSO4).”
as §5

[10] = system: Escherichia coli (#25922); assay: In vitro disc diffusion assay, ZOI (Example 3); type: cell-based; conditions: E. coli; control; 10 μg/disc
Procedure: as §4
as §1, with “the” for “these”, “colonies” for “colony”, “standards.” for “standards (bioMerieux, SA (France) they are made from barium sulfate (BaSO4).”
as §5

Bacillus cereus = assay: In vitro disc diffusion assay, ZOI (Example 3); type: cell-based; conditions: B. cereus; control; 10 μg/disc
Procedure: as §4
as §1, with “the” for “these”, “colonies” for “colony”, “standards.” for “standards (bioMerieux, SA (France) they are made from barium sulfate (BaSO4).”
as §5

[11] = Staphylococcus aureus, S. aureus, 200 μg/disc, read-out: Zone of inhibition
[12] = Staphylococcus aureus, S. aureus

O=Cc1ccncc1 [4-pyridine carboxaldehyde]
zone of inhibition at 200 µg/disc (P. aeruginosa; Pseudomonas aeruginosa): 27 mm | zone of inhibition at 200 µg/disc (P. vulgaris; Proteus vulgaris): 25 mm | zone of inhibition at 200 µg/disc (K. pnemonia; Klebsiella pneumoniae): 26 mm | zone of inhibition at 200 µg/disc (B. cereus [1]; Bacillus cereus): 29 mm | zone of inhibition at 200 µg/disc (E. coli; Escherichia coli): 25 mm | zone of inhibition at 200 µg/disc (S. aureus [2]; [11]): 30 mm

O=Cc1cccnc1 [3-pyridine carboxaldehyde]
zone of inhibition at 200 µg/disc (P. aeruginosa; Pseudomonas aeruginosa): 23 mm | zone of inhibition at 200 µg/disc (P. vulgaris; Proteus vulgaris): 21 mm | zone of inhibition at 200 µg/disc (K. pnemonia; Klebsiella pneumoniae): 22 mm | zone of inhibition at 200 µg/disc (B. cereus [1]; Bacillus cereus): 27 mm | zone of inhibition at 200 µg/disc (E. coli; Escherichia coli): 24 mm | zone of inhibition at 200 µg/disc (S. aureus [2]; [11]): 32 mm

C(=N\c1ccccc1SCc1ccccc1CSc1ccccc1/N=C/c1ccccn1)/c1ccccn1 [Bis [N,N′-(2-pyridinyl methylidene)]α,α′-bis((o-aminophenyl)thio)-ortho-xylene]
% Antiox-Act [3]: 61.3% | zone of inhibition at 200 µg/disc (B. cereus [1]; Bacillus cereus): 7 mm | zone of inhibition at 200 µg/disc (S. aureus [2]; [11]): 7 mm

Nc1ccccc1SCc1ccc(CSc2ccccc2N)cc1 [α,α′-bis((o-aminophenyl)thio)-para-xylene]
% Antiox-Act [3]: 65.4% | zone of inhibition at 50 µg/disc (B. cereus [1]; Bacillus cereus): 9 mm | zone of inhibition at 100 µg/disc (B. cereus [1]; Bacillus cereus, 100 μg/disc): 16 mm | zone of inhibition at 200 µg/disc (B. cereus [1]; Bacillus cereus): 19 mm | zone of inhibition at 50 µg/disc (S. aureus [2]; [12]): 11 mm | zone of inhibition at 100 µg/disc (S. aureus [2]; Staphylococcus aureus, S. aureus, 100 μg/disc): 13 mm | zone of inhibition at 200 µg/disc (S. aureus [2]; [11]): 17 mm

Nc1ccccc1SCc1ccccc1 [S-benzyl-ortho-aminothiophenol, S-benzyl ortho-aminothiophenol]
zone of inhibition at 166 µg/disc (B. cereus [1]; Bacillus cereus, 166 μg/disc): 12 mm | zone of inhibition at 333 µg/disc (B. cereus [4]; 333 μg/disc): 15 mm | zone of inhibition at 666 µg/disc (B. cereus [4]; 666 μg/disc): 16 mm | zone of inhibition at 166 µg/disc (S. aureus [2]; Staphylococcus aureus, S. aureus, 166 μg/disc): 11 mm | zone of inhibition at 333 µg/disc (S. aureus [5]; 333 μg/disc): 13 mm | zone of inhibition at 666 µg/disc (S. aureus [5]; 666 μg/disc): 15 mm

C(=N\c1ccccc1SCc1ccccc1)/c1ccccn1 [N-(2-pyridinylmethylidene) S-benzyl-ortho-aminothiophenol]
% Antiox-Act [3]: 65.8% | zone of inhibition at 75 µg/disc (B. cereus [1]; Bacillus cereus, 75 μg/disc): 7 mm | zone of inhibition at 75 µg/disc (S. aureus [2]; Staphylococcus aureus, S. aureus, 75 μg/disc): 11 mm

Nc1ccccc1SCc1ccccc1CSc1ccccc1N [α,α′-bis((o-aminophenyl)thio)-ortho-xylene]
% Antiox-Act [3]: 60.8% | zone of inhibition at 200 µg/disc (B. cereus [1]; Bacillus cereus): 8 mm | zone of inhibition at 200 µg/disc (S. aureus [2]; Staphylococcus aureus): 7 mm

Gentamicin
ZOI [6]: 7 mm | ZOI [7]: 9 mm | ZOI [8]: 9.5 mm | ZOI [9]: 9.5 mm | ZOI [10]: 9 mm | ZOI (Bacillus cereus): 9.5 mm | Zone of Inhibition (P. aeruginosa; 10 μg/disc): 20 mm | Zone of Inhibition (P. vulgaris; 10 μg/disc): 24 mm | Zone of Inhibition (K. pnemonia; 10 μg/disc): 25 mm | Zone of Inhibition (B. cereus [1]; 10 μg/disc): 25 mm | Zone of Inhibition (E. coli; 10 μg/disc): 24 mm | Zone of Inhibition (S. aureus [2]; S. aureus, 10 μg/disc): 25 mm

O=Cc1ccccn1 [2-pyridine carboxaldehyde]
zone of inhibition at 50 µg/disc (P. aeruginosa; Pseudomonas aeruginosa, 50 μg/disc): 24 mm | zone of inhibition at 50 µg/disc (P. vulgaris; Proteus vulgaris, 50 μg/disc): 22 mm | zone of inhibition at 50 µg/disc (K. pnemonia; Klebsiella pneumoniae, 50 μg/disc): 23 mm | % Antiox-Act [3]: 67.0% | zone of inhibition at 50 µg/disc (B. cereus [1]; Bacillus cereus): 20 mm | zone of inhibition at 50 µg/disc (E. coli; Escherichia coli, 50 μg/disc): 17 mm | zone of inhibition at 50 µg/disc (S. aureus [2]; [12]): 15 mm

Reference: patent US20140348880A1, “Ortho-Aminothiophenol Compounds and Uses Thereof” (Cape Breton University, priority 2013, published 2014)
